Patent US7041662B2, “Substituted benzo [b] azepin-2-one compounds” (Grunenthal GmbH, priority 2002, dated 2006)

test system: phenylquinone-induced writhing reactions; test: phenylquinone-induced writhing in mice; type: in vivo; details: male NMRI mice, phenylquinone i.p. 10 minutes after compound, writhing counted 5-20 minutes after phenylquinone
Experimental: The investigation into analgesic efficacy was performed by phenylquinone-induced writhing in mice (modified after: I. C. Hendershot, J. Forsaith, J. Pharmacol. Exp. There. 125, 237–240 (1959)). The corresponding literature description is hereby introduced as a reference and is deemed to be part of the disclosure.
Male NMRI mice weighing from 25 to 30 g were used for this purpose. Groups of 10 animals per substance dose received, 10 minutes after intravenous administration of the compounds tested, 0.3 ml/mouse of a 0.02% aqueous solution of phenylquinone (phenylbenzoquinone, Sigma, Deisenhofen; solution prepared with addition of 5% of ethanol and stored in a water bath at 45° C.) administered intraperitoneally. The animals were placed individually in observation cages. A push button counter was used to record the number of pain-induced stretching movements (writhing reactions=straightening of the torso with stretching of the rear extremities) for 5–20 minutes after phenylquinone administration. The control was provided by animals who received only physiological common salt solution.
The compounds were tested at the standard dosage of 10 mg/kg. Inhibition of the writhing reactions by a substance was calculated according to the following formula: […]
The in-depth investigation into analgesic efficacy was performed using phenylquinone-induced writhing in mice, as described above.

SMILES	% inhibition of writhing reactions 10 mg/kg i.v. [%]
COc1cccc(C2(O)CCC(OC(=O)CC3=CCC(=O)N(C)c4cc(Cl)ccc43)CC2CN(C)C)c1 (stereo not drawn) [Example 4, 2′-(8-chloro-1-methyl-2-oxo-2,3-dihydro-1H-benzo[b]azepin-5-yl) acetic acid [3″-(N,N-dimethylaminomethyl)-4″-hydroxy-4″-(m-methoxyphenyl)cyclohexyl]ester]	39
COc1cccc(C2(O)CCC(OC(=O)CC3=CCC(=O)Nc4cc(Cl)ccc43)CC2CN(C)C)c1 (stereo not drawn) [Example 5, 2′-(8-chloro-2-oxo-2,3-dihydro-1H-benzo[b]azepin-5-yl) acetic acid [3″-(N,N-dimethylaminomethyl)-4″-hydroxy-4″-(m-methoxyphenyl)cyclohexyl]ester]	63
COc1cccc(C2(O)CCC(NC(=O)CC3=CCC(=O)N(C)c4cc(Cl)ccc43)CC2CN(C)C)c1 (stereo not drawn) [Example 6, 2′-(8-chloro-1-methyl-2-oxo-2,3-dihydro-1H-benzo[b]azepin-5-yl)-N-[3″-(N,N-dimethylaminomethyl)-4″-hydroxy-4″-(m-methoxyphenyl)cyclohexyl]acetamide]	25
